Results reported in US8859508B2, “Application of 5-methyl-1,3-benzenediol or derivatives thereof in the preparation of medicines and functional foods for treatment or prevention of depression” (Kunming Institute of Botany, Chinese Academy of Sciences, priority 2007, dated 2014).

Assays:
Kunming mice [1] = assay: Elevated plus maze (EPM) test in mice; type: in vivo, mouse; conditions: positive control, 2 mg/kg
Procedure: Kunming mice (Certificate Number: A4CXK(Chuan)2003-16) from the Institute of Experimental Animals, People's Hospital of Sichuan Province, were used. They were 3-4 weeks old at the beginning of the experiment and weighed 25-30 g. ORG was prepared as described in Example 1. Animals were divided into drug administration groups with different doses of ORG, a vehicle control group, and a diazepam group (Jinyao Ltd. Co., Batch No. 106k1588) as positive control.
Elevated plus maze (EPM): The EPM had two open and two closed arms of equal size (30 cm long×5 cm wide). The two closed arms were connected by a central 5 cm×5 cm area. The whole maze was elevated to a height of 35 cm. ORG was administered i.p. 24 h and 5 h before the test started. Mice were individually placed in the center of the maze facing a closed arm. Each animal was tested for 5 min in a single session. The number of entrances into open arms, the number of entrances into closed arms, the total time spent in open arms, and the total time spent in closed arms were recorded; a standard of entry was defined as all limbs entering the arm. The number of entrances into open arms and time spent in open arms were the major indexes to evaluate the anxiety level of the animals, for the more entrances or time, the less the anxiety level.
(§1) Data analysis: The results of the test are expressed as mean±SEM. One-way ANOVA was used followed by the LSD test with SPSS 11 software. The significance level was set at P<0.05.

Sprague-Dawley rats = assay: Forced swim test (FST) in rats; type: in vivo, rat; conditions: positive control, 15 mg/kg
Kunming mice [2] = assay: Tail suspension test (TST) in mice; conditions: TST mice, positive control, 15 mg/kg
Kunming mice [3] = assay: Forced swim test (FST) in mice; conditions: FST mice
CMS model mice [4] = assay: TST in chronic unpredictable mild stress (CMS) model mice; type: in vivo, mouse; conditions: CMS mice, positive control, 15 mg/kg
Procedure: (§2) Kunming mice (Certificate Number: A4CXK(Chuan)2003-16) from the Institute of Experimental Animals, People's Hospital of Sichuan Province, were used. They were 3-4 weeks old at the beginning of experiments and weighed 25-30 g. ORG was prepared as described in Example 1. Animals were divided into experiment groups with different doses, a vehicle control group, and an imipramine group (Sigma, Batch No. 106k1588) as positive control.
(§3) CMS model: The chronic mild stresses that Kunming mice were subjected to were reversal of circadian rhythm, continuous light, cold, damp bedding, tilt cages, food and water restriction, and restraint. […] The stress period lasted for 8 weeks. In the last week, ORG was administered orally once a day for 7 consecutive days. The behavioral test was carried out 30 min after the last administration. The parameter tested was immobility time in the FST and TST in the CMS model mice. The methods of FST and TST and data analysis were as described above.

DD model mice [5] = assay: TST in constant darkness (DD) model mice; type: in vivo, mouse; conditions: DD mice, positive control, 15 mg/kg
Procedure: (§4) Kunming mice (Certificate Number: A4CXK(Chuan)2003-16) from the Institute of Experimental Animals, People's Hospital of Sichuan Province, were used. They were 3-4 weeks old at the beginning of the experiments and weighed 25-30 g. ORG was prepared as described in Example 1. Animals were divided into experimental groups with different doses, vehicle control groups, and an imipramine group (Sigma, Batch No. 106k1588) as positive control.
(§5) DD model in mice: Mice were kept under 24 h continuous dark conditions. The replacement of padding, addition of food and water, and other operations were undertaken in the condition that the intensity of red light was less than 1.0 lux. The period of this condition lasted for 28 days. In the last week, ORG was administered orally once a day for 1 week. The FST and TST were carried out 30 min after the last administration. Methods and data analysis were as described above.

CMS model mice [6] = assay: FST in chronic unpredictable mild stress (CMS) model mice; type: in vivo, mouse; conditions: CMS mice, positive control, 15 mg/kg
Procedure: as §2, §3

DD model mice [7] = assay: FST in constant darkness (DD) model mice; type: in vivo, mouse; conditions: DD mice, positive control, 15 mg/kg
Procedure: as §4, §5

SD model mice = assay: FST in sleep deprivation (SD) model mice; type: in vivo, mouse; conditions: SD model mice, 24 h and 5 h before FST, 7.5 mg/kg
Procedure: Kunming mice (Certificate Number: A4CXK(Chuan)2003-16) from the Institute of Experimental Animals, People's Hospital of Sichuan Province, were used. They were 3-4 weeks old at the beginning of the experiments and weighed 25-30 g. ORG was prepared as described in Example 1. Animals were divided into experiment groups with different doses, a vehicle control group, and an imipramine group (Sigma, Batch No. 1061c1588) as positive control.
SD model: A modified method with multiple platforms in a water environment was used to establish the SD model in mice. Mice on the platforms were free to eat and drink. However, if it fell asleep, it fell into the water because of the loss of muscle tone. The fallen animal climbed onto the platform again via a tilt pole which propped up the platforms. After 72 h of sleep deprivation, ORG was administered orally 24 h and 5 h before the FST started. The immobility time of animals were recorded. Methods and data analysis were as described above.

serum corticosterone = assay: Serum corticosterone level (radioimmunoassay), non-stressed and elevated platform stressed rats; type: in vivo, rat
Kunming mice [8] = assay: Morris water maze (MWM) in mice; type: in vivo, mouse
Procedure: Kunming mice (Certificate Number: A4CXK(Chuan)2003-16) from the Institute of Experimental Animals, People's Hospital of Sichuan Province, were used. They were 3-4 weeks old at the beginning of the experiment and weighed 25-30 g. ORG was prepared as described in Example 1. Animals were divided into drug administration groups with fluoxetine or different doses of ORG and a vehicle control group. The drug administration groups received 1.75 mg/kg or 3.5 mg/kg of ORG or 15 mg/kg of fluoxetine. Animals received a single i.p. injection of drug or vehicle 30 min either after training every day or 30 min before the retention test on day 8.
Morris water maze: The MWM was performed in a circular pool (100 cm in diameter and 36 cm in depth) with a hidden platform (10 cm×10 cm) that was approximately 1 cm below the water surface. The pool was surrounded by yellow curtains with different shaped markers hanging in each quadrant. The time spent to find the hidden platform and the trajectory of the mouse were recorded by computer. From days 1 to 7, mice were placed in the pool to find the fixed hidden platform. On day 8, the platform was removed and the time that the mouse spent in the target quadrant was counted in 1 min of free swimming.
as §1

[9] = positive control, 15 mg/kg (Table 2)
[10] = i.p. 24 h and 5 h before test, 10 mg/kg (Table 5)

## CN1C(=O)CN=C(c2ccccc2)c2cc(Cl)ccc21 [Diazepam, diazepam, reference compound]
Kunming mice [1]
  Number of entries into open arms (mean ± SEM): 4.80 ± 0.77
  Total time spent in the open arms (s) (mean ± SEM): 46.90 ± 7.19 s

## COc1ccc(C(CN(C)C)C2(O)CCCCC2)cc1 (stereo not drawn) [Venlafaxine, venlafaxine, reference compound]
Sprague-Dawley rats
  Immobility time (s) (mean ± SEM): 100.80 ± 9.84 s
Kunming mice [2]
  Immobility time (s) (mean ± SEM): 102.85 ± 9.34 s
Kunming mice [3]; [9]
  Immobility time (s) (mean ± SEM): 134.28 ± 3.76 s

## CC(=O)Oc1cc(C)cc(OC(C)=O)c1 [OR-2Ac, 1,3-O-diacetylorcinol]
Kunming mice [3]; [10]
  Immobility time (s) (mean ± SEM): 170.10 ± 6.37 s

## CN(C)CCCN1c2ccccc2CCc2ccccc21 [Imipramine, imipramine, reference compound]
CMS model mice [4]
  Immobility time (s) (mean ± SEM): 131.22 ± 10.61 s
DD model mice [5]
  Immobility time (s) (mean ± SEM): 131.22 ± 10.61 s
CMS model mice [6]
  Immobility time (s) (mean ± SEM): 166.00 ± 13.84 s
Sprague-Dawley rats
  Immobility time (s) (mean ± SEM): 92.72 ± 7.09 s
DD model mice [7]
  Immobility time (s) (mean ± SEM): 161.22 ± 13.08 s
SD model mice
  Immobility time (s) (mean ± SEM): 150.27 ± 13.17 s
Kunming mice [2]
  Immobility time (s) (mean ± SEM): 105.65 ± 5.71 s
Kunming mice [3]; [9]
  Immobility time (s) (mean ± SEM): 131.20 ± 3.91 s
Kunming mice [3]; positive control, 15 mg/kg (Table 4)
  Immobility time (s) (mean ± SEM): 96.38 ± 12.04 s
Kunming mice [3]; positive control, 15 mg/kg (Table 5)
  Immobility time (s) (mean ± SEM): 146.00 ± 6.46 s

## CNCCC(Oc1ccc(C(F)(F)F)cc1)c1ccccc1 (stereo not drawn) [Fluoxetine, reference compound]
Serum corticosterone; non-stress rats, 15 mg/kg
  Concentration of serum corticosterone (ng/ml) (mean ± SEM): 167.20 ± 31.35 ng/mL
Serum corticosterone; non-stress rats, 30 mg/kg
  Concentration of serum corticosterone (ng/ml) (mean ± SEM): 178.14 ± 38.77 ng/mL
Serum corticosterone; stress rats, 15 mg/kg
  Concentration of serum corticosterone (ng/ml) (mean ± SEM): 331.35 ± 46.43 ng/mL
Serum corticosterone; stress rats, 30 mg/kg
  Concentration of serum corticosterone (ng/ml) (mean ± SEM): 324.58 ± 58.63 ng/mL
Kunming mice [8]; i.p. 30 min before retrieval on day 8, 15 mg/kg
  Time spent in the right quadrant (s) (mean ± SEM): 29.44 ± 2.14 s
Kunming mice [8]; i.p. daily 30 min after training, retention test day 8, 15 mg/kg
  Time spent in the right quadrant (s) (mean ± SEM): 32.61 ± 2.20 s

## Cc1cc(O)cc(OC2OC(COC3OC(CO)C(O)C(O)C3O)C(O)C(O)C2O)c1 [ORGG, orcinol-1-O-[β-D-glucopyranosyl-(1→6)]-β-D-glucopyranoside]
Kunming mice [3]; [10]
  Immobility time (s) (mean ± SEM): 184.20 ± 11.29 s

## Cc1cc(O)cc(O)c1 [OR, orcinol]
Kunming mice [3]; i.p. 24 h and 5 h before test, 10 mg/kg (Table 4)
  Immobility time (s) (mean ± SEM): 82.40 ± 10.64 s
